Measurements: patent US20080255186A1, “Pyrazolo[3,4-B]Pyridine Compound, and Its Use as a Pde4 Inhibitor” (priority 2005, published 2008)

Tested on: PDE3 (from bovine aorta)
Assay: PDE3 inhibition (FP or SPA general type of assay)
Format: biochemical
Conditions: in the particular assays used
From the text: PDE3 can be purified from bovine aorta as described by H. Coste and P. Grondin, “Characterisation of a novel potent and specific inhibitor of type V phosphodiesterase”, Biochem. Pharmacol., 1995, 50, 1577-1585.
The ability of compounds to inhibit catalytic activity at PDE4B or 4D (human recombinant), PDE3 (from bovine aorta), PDE5 (human recombinant) or PDE6 (from bovine retina) can optionally be determined by Scintillation Proximity Assay (SPA) in a 96-well format.
Test compounds (as a solution in DMSO, suitably about 2 microlitre (ul) volume of DMSO solution) are preincubated at ambient temperature (room temperature, e.g. 19-23° C.) in Wallac Isoplates (code 1450-514) with PDE enzyme in 50 mM Tris-HCl buffer pH 7.5, 8.3 mM MgCl2, 1.7 mM EGTA, 0.05% (w/v) bovine serum albumin for 10-30 minutes (usually 30 minutes). […] Bound radioactive product is measured using a WALLAC TRILUX 1450 Microbeta scintillation counter. […] Curves are analysed using ActivityBase and XLfit (ID Business Solutions Limited, 2 Ocean Court, Surrey Research Park, Guildford, Surrey GU2 7QB, United Kingdom). Results are expressed as pIC50 values.
The compound of the invention (e.g. as prepared in Example 1) has also been tested for PDE3, PDE5 and PDE6 inhibition, e.g. using (independently for each PDE type) either a Fluorescence Polarisation (FP) general type of assay or using an SPA general type of assay.

Compound: CCc1nc2c(cnn2CC)c(NC2CCOCC2)c1CNC(=O)c1cc(C)no1 [Example 1, N-{[1,6-diethyl-4-(tetrahydro-2H-pyran-4-ylamino)-1H-pyrazolo[3,4-b]pyridin-5-yl]methyl}-3-methyl-5-isoxazolecarboxamide]
- PDE4B pIC50 compared with PDE3 pIC50 (selectivity): inhibits PDE4B more strongly than it inhibits PDE3, PDE5 and PDE6
